Reference: US9499550B2 (BRISTOL-MYERS SQUIBB COMPANY, priority 2012, dated 2016)
Read-outs that look alike come from different tables or passages of the source.

Columns and labels:
[1] = system: HCV genotype 1a (H77 strain) replicon in HUH-7 cells; test: HCV replicon luciferase reporter assay, genotype 1a; type: cell-based; conditions: Hepatitis C virus, Huh-7, 72 h, 3 days incubation
Method in brief: (§1)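 Replicon inhibition for both genotypes was measured as Renilla luciferase signal (EnduRen, 7.5 μM final, 2 h) after 3-day, 37° C exposure of replicon-bearing HUH-7 cells in 4% FCS DMEM, 0.5% DMSO. The 1b construct carries S1179I; the 1a H77 construct carries P1496L and S2204I. Twenty-point, 3-fold dilutions were fitted four-parametrically for EC50, and CC50 was taken from multiplexed Cell Titer-Blue.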

[2] = system: HCV genotype 1b (Con1) replicon in HUH-7 cells; test: HCV replicon luciferase reporter assay, genotype 1b; type: cell-based; conditions: Hepatitis C virus, Huh-7, 72 h, 3 days incubation
Method in brief: as §1

[3] = GETYPE1A, HCV genotype 1a replicon luciferase, read-out: LE_1a (EC50, range)
[4] = GETYPE1B, HCV genotype 1b replicon luciferase, read-out: LE_1b (EC50, range)
[5] = HCV genotype 1a replicon luciferase, read-out: LE_1a (EC50, range)
[6] = HCV genotype 1b replicon luciferase, read-out: LE_1b (EC50, range)
[7] = HCV genotype 1a replicon luciferase assay, range class, read-out: LE_1a (EC50, range)
[8] = HCV genotype 1b replicon luciferase assay, range class, read-out: LE_1b (EC50, range)

| Structure (SMILES) | EC50 [1, 5] [nM] | EC50 [2, 6] [nM] | EC50 [1, 7] [nM] | EC50 [2, 8] [nM] | other results |
| --- | --- | --- | --- | --- | --- |
| COc1cc2ccnc(O[C@@H]3C[C@H]4C(=O)N[C@]5(C(=O)NS(=O)(=O)C6(CF)CC6)C[C@H]5/C=C\CC[C@@H](C)C[C@@H](C)[C@H](NC(=O)OC5(C(F)(F)F)CCCCO5)C(=O)N4C3)c2cc1F (stereo partly drawn) [Compound 1190] | – | – | – | – | EC50 ([1]; GETYPE1A, HCV genotype 1a replicon luciferase, read-out: LE_1a (EC50)): 1.66 nM; EC50 [1, 3]: 1.01 to 5 nM; EC50 ([2]; GETYPE1B, HCV genotype 1b replicon luciferase, read-out: LE_1b (EC50)): 1.12 nM; EC50 [2, 4]: 1.01 to 5 nM |
| CC[C@@H]1C[C@H](C)CC/C=C\[C@@H]2C[C@@]2(C(=O)NS(=O)(=O)C2(C)CC2)NC(=O)[C@@H]2C[C@@H](Oc3nc4c(c5ccccc35)OCCC4)CN2C(=O)C1NC(=O)OC(C)(C)C(F)(F)F (stereo partly drawn) [Compound 6028, 1,1,1-trifluoro-2-methylpropan-2-yl((2R,6S,7R,9R,13aS,14aR,16aS,Z)-2-((3,4-dihydro-2H-pyrano[3,2-c]isoquinolin-6-yl)oxy)-7-ethyl-9-methyl-14a-(((1-methylcyclopropyl)sulfonyl)carbamoyl)-5,16-dioxo-1,2,3,5,6,7,8,9,10,11,13a,14,14a,15,16,16a-hexadecahydrocyclopropa[e]pyrrolo[1,2-a][1,4]diazacyclopentadecin-6-yl)carbamate] | < 5.46 | < 5.46 | – | – | – |
| COCCOc1cnc(O[C@@H]2C[C@H]3C(=O)N[C@]4(C(=O)NS(=O)(=O)C5CC5)C[C@H]4/C=C\CC[C@@H](C)C[C@@H](C)[C@H](NC(=O)OC4COC4)C(=O)N3C2)c2ccc(OC)cc12 [Compound 1159, oxetan-3-yl ((2R,6S,7R,9R,13aS,14aR,16aS,Z)-14a-((cyclopropylsulfonyl)carbamoyl)-2-((6-methoxy-4-(2-methoxyethoxyl)isoquinolin-1-yl)oxy)-7,9-dimethyl-5,16-dioxo-1,2,3,5,6,7,8,9,10,11,13a,14,14a,15,16,16a-hexadecahydrocyclopropa[e]pyrrolo[1,2-a][1,4]diazacyclopentadecin-6-yl)carbamate] | – | – | 4.82 to 103 | 4.82 to 103 | – |
| C[C@H]1CC/C=C\[C@@H]2C[C@@]2(C(=O)NS(=O)(=O)C2CC2)NC(=O)[C@@H]2C[C@@H](Oc3nccc4c5c(ccc34)N(C)CCO5)CN2C(=O)[C@@H](NC(=O)OC(C)(C)C)[C@H](C)C1 [Compound 5275, tert-butyl ((2R,6S,7R,9S,13aS,14aR,16aS,Z)-14a-((cyclopropylsulfonyl)carbamoyl)-7,9-dimethyl-2-((4-methyl-3,4-dihydro-2H-[1,4]oxazino[2,3-f]isoquinolin-7-yl)oxy)-5,16-dioxo-1,2,3,5,6,7,8,9,10,11,13a,14,14a,15,16,16a-hexadecahydrocyclopropa[e]pyrrolo[1,2-a][1,4]diazacyclopentadecin-6-yl)carbamate] | < 5.46 | < 5.46 | – | – | – |
| C[C@H]1CC/C=C\[C@@H]2C[C@@]2(C(=O)NS(=O)(=O)C2CC2)NC(=O)[C@@H]2C[C@@H](Oc3nc(OCC(F)F)cc4c(Cl)cccc34)CN2C(=O)[C@@H](NC(=O)OC(C)(C)C)[C@H](C)C1 [Compound 1075, tert-butyl ((2R,6S,7R,9S,13aS,14aR,16aS,Z)-2-((5-chloro-3-(2,2-difluoroethoxy)isoquinolin-1-yl)oxy)-14a-((cyclopropylsulfonyl)carbamoyl)-7,9-dimethyl-5,16-dioxo-1,2,3,5,6,7,8,9,10,11,13a,14,14a,15,16,16a-hexadecahydrocyclopropa[e]pyrrolo[1,2-a][1,4]diazacyclopentadecin-6-yl)carbamate] | – | – | < 5.46 | < 5.46 | – |
| COc1ccc2c(O[C@@H]3C[C@H]4C(=O)N[C@]5(C(=O)NS(=O)(=O)C6CC6)C[C@H]5/C=C\CC[C@H](C)C[C@@H](C)[C@H](NC(=O)OC(C)(C)C)C(=O)N4C3)nc(N(C)C)cc2c1 [Compound 3120, tert-butyl ((2R,6S,7R,9S,13aS,14aR,16aS,Z)-14a-((cyclopropylsulfonyl)carbamoyl)-2-((3-(dimethylamino)-6-methoxyisoquinolin-1-yl)oxy)-7,9-dimethyl-5,16-dioxo-1,2,3,5,6,7,8,9,10,11,13a,14,14a,15,16,16a-hexadecahydrocyclopropa[e]pyrrolo[1,2-a][1,4]diazacyclopentadecin-6-yl)carbamate] | – | – | 4.82 to 103 | 4.82 to 103 | – |
| COc1ccc2c(O[C@@H]3C[C@H]4C(=O)N[C@]5(C(=O)NS(=O)(=O)C6(C)CC6)C[C@H]5/C=C\CC[C@@H](C)C[C@@H](C)[C@H](NC(=O)OC(C)(C)C(F)(F)F)C(=O)N4C3)nc(-c3ccc(C(C)(C)C)cc3)cc2c1 [Compound 4079] | – | – | – | – | EC50 [1, 3]: 4.82 to 103 nM; EC50 [2, 4]: 4.82 to 103 nM |
| CCOc1cc2ccnc(O[C@@H]3C[C@H]4C(=O)N[C@]5(C(=O)NS(=O)(=O)C6(C)CC6)C[C@H]5/C=C\CC[C@@H](C)C[C@@H](C)[C@H](NC(=O)OC(C)(C)C)C(=O)N4C3)c2cc1F [Compound 5393, tert-butyl ((2R,6S,7R,9R,13aS,14aR,16aS,Z)-2-((6-ethoxy-7-fluoroisoquinolin-1-yl)oxy)-7,9-dimethyl-14a-(((1-methylcyclopropyl)sulfonyl)carbamoyl)-5,16-dioxo-1,2,3,5,6,7,8,9,10,11,13a,14,14a,15,16,16a-hexadecahydrocyclopropa[e]pyrrolo[1,2-a][1,4]diazacyclopentadecin-6-yl)carbamate] | 0.51 to 1 | 0.51 to 1 | – | – | EC50 ([1]; HCV genotype 1a replicon luciferase, read-out: LE_1a (EC50)): 0.92 nM; EC50 ([2]; HCV genotype 1b replicon luciferase, read-out: LE_1b (EC50)): 0.55 nM |
| COc1ccc2c(O[C@@H]3C[C@H]4C(=O)N[C@]5(C(=O)NS(=O)(=O)C6CC6)C[C@H]5/C=C\CC[C@H](C)C[C@@H](C)[C@H](NC(=O)OC(C)(C)C)C(=O)N4C3)ncnc2c1 [Compound 4033, tert-butyl (2R,6S,7R,9S,13aS,14aR,16aS,Z)-14a-(cyclopropylsulfonylcarbamoyl)-2-(7-methoxyquinazolin-4-yloxy)-7,9-dimethyl-5,16-dioxo-1,2,3,5,6,7,8,9,10,11,13a,14,14a,15,16,16a-hexadecahydrocyclopropa[e]pyrrolo[1,2-a][1,4]diazacyclopentadecin-6-ylcarbamate] | < 5.46 | < 5.46 | – | – | – |
| CC[C@@H]1C[C@H](C)CC/C=C\[C@@H]2C[C@@]2(C(=O)NS(=O)(=O)C2(CF)CC2)NC(=O)[C@@H]2C[C@@H](Oc3nccc4c5c(ccc34)OCCO5)CN2C(=O)[C@H]1NC(=O)OC(C)(C)C [Compound 5425, tert-butyl ((2R,6S,7R,9R,13aS,14aR,16aS,Z)-2-((2,3-dihydro-[1,4]dioxino[2,3-f]isoquinolin-7-yl)oxy)-7-ethyl-14a-(((1-(fluoromethyl)cyclopropyl)sulfonyl)carbamoyl)-9-methyl-5,16-dioxo-1,2,3,5,6,7,8,9,10,11,13a,14,14a,15,16,16a-hexadecahydrocyclopropa[e]pyrrolo[1,2-a][1,4]diazacyclopentadecin-6-yl)carbamate] | 1.01 to 5 | 1.01 to 5 | – | – | – |
| COc1cnc(O[C@@H]2C[C@H]3C(=O)N[C@]4(C(=O)NS(=O)(=O)C5(CF)CC5)C[C@H]4/C=C\CC[C@@H](C)C[C@@H](C)[C@H](NC(=O)OC(C)(C)C(F)(F)F)C(=O)N3C2)c2ccc(N(C)C)cc12 [Compound 3144, 1,1,1-trifluoro-2-methylpropan-2-yl((2R,6S,7R,9R,13aS,14aR,16aS,Z)-2-((6-(dimethylamino)-4-methoxyisoquinolin-1-yl)oxy)-14a-(((1-(fluoromethyl)cyclopropyl)sulfonyl)carbamoyl)-7,9-dimethyl-5,16-dioxo-1,2,3,5,6,7,8,9,10,11,13a,14,14a,15,16,16a-hexadecahydrocyclopropa[e]pyrrolo[1,2-a][1,4]diazacyclopentadecin-6-yl)carbamate] | – | – | < 5.46 | < 5.46 | – |
| CC[C@@H]1C[C@H](C)CC/C=C\[C@@H]2C[C@@]2(C(=O)NS(=O)(=O)C2(CF)CC2)NC(=O)[C@@H]2C[C@@H](Oc3nccc4c5c(ccc34)OCCO5)CN2C(=O)[C@H]1NC(=O)OC(C)(C)C(C)(F)F [Compound 5461, 3,3-difluoro-2-methylbutan-2-yl((2R,6S,7R,9R,13aS,14aR,16aS,Z)-2-((2,3-dihydro-[1,4]dioxino[2,3-f]isoquinolin-7-yl)oxy)-7-ethyl-14a-(((1-(fluoromethyl)cyclopropyl)sulfonyl)carbamoyl)-9-methyl-5,16-dioxo-1,2,3,5,6,7,8,9,10,11,13a,14,14a,15,16,16a-hexadecahydrocyclopropa[e]pyrrolo[1,2-a][1,4]diazacyclopentadecin-6-yl)carbamate] | 1.01 to 5 | 1.01 to 5 | – | – | – |
| C[C@@H]1CC/C=C\[C@@H]2C[C@@]2(C(=O)NS(=O)(=O)C2CC2)NC(=O)[C@@H]2C[C@@H](Oc3ncc(OC4CC4)c4c(Cl)cccc34)CN2C(=O)[C@@H](NC(=O)OC(C)(C)C(F)(F)F)[C@H](C)C1 [Compound 32] | – | – | – | – | EC50 ([1]; GETYPE1A, HCV genotype 1a replicon luciferase assay, range class, read-out: LE_1a (EC50, range)): < 5.46 nM; EC50 ([2]; GETYPE1B, HCV genotype 1b replicon luciferase assay, range class, read-out: LE_1b (EC50, range)): < 5.46 nM |
